Data reported in patent US20250353891A1 (MEDIMMUNE LIMITED, priority 2022, published 2025).
pEC50: −log10 of the molar value. Starred links: 1 amine or outer side, 2 acyl side, 3 side chain; linkers in the order of their positions; H or OH if unused. Non-standard residues stand in square brackets, D forms with d. Residues, ends and D or L forms follow the SMILES beside them. Groups on a side chain read outwards from the residue. *: point of attachment. C20 diacid = O=C(O)CCCCCCCCCCCCCCCCCCC(=O)*; C18 diacid = O=C(O)CCCCCCCCCCCCCCCCC(=O)*; γGlu = O=C(O)[C@H](CCC(=O)[*:2])N[*:1]; αMeF = C[C@](N)(Cc1ccccc1)C(=O)O; AEEA = NCCOCCOCC(=O)O; Aib = CC(C)(N)C(=O)O

How the values were obtained:
[1] = target: human GLP-1 receptor (hGLP-1R) (Homo sapiens, UniProt P43220); test: cAMP production (HTRF) in CHO cells expressing hGLP-1R; type: cell-based; set-up: expressed in transfected cells; settings: for pEC50: Table 6, peptides modified at position 17, cAMP in CHO hGLP-1R cells, geometric mean, read-out: hGLP-1R EC50; for % Relative Potency Ratio: Table 6, % GLP-1R activity relative to GLP-1 / % GlucR activity relative to glucagon
Chain of human GLP-1 receptor (hGLP-1R) (P43220 24-463): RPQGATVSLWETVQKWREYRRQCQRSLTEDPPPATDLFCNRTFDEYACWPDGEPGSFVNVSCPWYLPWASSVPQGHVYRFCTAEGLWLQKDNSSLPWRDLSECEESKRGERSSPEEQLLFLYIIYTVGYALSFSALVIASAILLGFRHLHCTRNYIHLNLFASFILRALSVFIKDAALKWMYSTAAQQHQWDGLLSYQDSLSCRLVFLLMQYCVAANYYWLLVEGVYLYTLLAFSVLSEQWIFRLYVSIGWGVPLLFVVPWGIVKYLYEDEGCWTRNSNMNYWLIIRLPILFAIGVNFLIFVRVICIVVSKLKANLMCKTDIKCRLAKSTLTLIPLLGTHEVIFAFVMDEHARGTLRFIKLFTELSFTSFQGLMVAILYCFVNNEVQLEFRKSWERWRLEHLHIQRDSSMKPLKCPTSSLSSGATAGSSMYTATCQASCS
How it was run: (§1)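 Potency values represent EC50 from 4-parameter logistic curves of HTRF % Delta F signal. Receptor-expressing CHO cells (hGCGR 2×10^5 cells/mL, hGLP-1R 1×10^5 cells/mL) were exposed for 30 min at room temperature before two-step cAMP detection.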

[2] = target: human glucagon receptor (hGCGR) (Homo sapiens, UniProt P47871); test: cAMP production (HTRF) in CHO cells expressing hGCGR; type: cell-based; set-up: expressed in transfected cells; settings: Table 6, peptides modified at position 17; cAMP in CHO hGCGR cells; geometric mean; read-out: hGluc-R EC50
Chain of human glucagon receptor (hGCGR) (P47871 26-477): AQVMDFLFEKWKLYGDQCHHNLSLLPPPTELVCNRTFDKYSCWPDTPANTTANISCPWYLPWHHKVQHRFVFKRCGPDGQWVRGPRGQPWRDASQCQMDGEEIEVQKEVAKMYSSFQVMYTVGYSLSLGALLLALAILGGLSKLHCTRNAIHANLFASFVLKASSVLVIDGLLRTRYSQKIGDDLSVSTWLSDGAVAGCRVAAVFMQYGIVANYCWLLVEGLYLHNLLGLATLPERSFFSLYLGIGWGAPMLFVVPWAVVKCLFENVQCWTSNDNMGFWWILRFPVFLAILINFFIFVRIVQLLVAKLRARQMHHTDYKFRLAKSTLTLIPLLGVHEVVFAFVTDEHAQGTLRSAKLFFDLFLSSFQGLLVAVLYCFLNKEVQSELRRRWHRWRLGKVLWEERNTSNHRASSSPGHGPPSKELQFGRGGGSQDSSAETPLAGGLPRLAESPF
How it was run: as §1

Compound	pEC50 [1]	% Relative Potency Ratio [1]	pEC50 [2]
CC(C)C[C@H](NC(=O)[C@H](Cc1c[nH]c2ccccc12)NC(=O)[C@H](CCC(N)=O)NC(=O)[C@@H](NC(=O)[C@H](Cc1ccccc1)NC(=O)[C@H](CC(=O)O)NC(=O)[C@H](CCCNC(=N)N)NC(=O)[C@H](C)NC(=O)[C@H](CCCNC(=N)N)NC(=O)[C@H](CCCCNC(=O)COCCOCCNC(=O)COCCOCCNC(=O)CC[C@H](NC(=O)CCCCCCCCCCCCCCCCC(=O)O)C(=O)O)NC(=O)[C@@H](NC(=O)[C@H](CC(=O)O)NC(=O)[C@H](CC(C)C)NC(=O)[C@](C)(Cc1ccccc1)NC(=O)[C@H](CCCCN)NC(=O)[C@H](CO)NC(=O)[C@@H](NC(=O)[C@H](CC(=O)O)NC(=O)[C@H](CO)NC(=O)[C@@H](NC(=O)[C@H](Cc1ccccc1)NC(=O)[C@@H](NC(=O)CNC(=O)[C@H](CCC(N)=O)NC(=O)C(C)(C)NC(=O)[C@@H](N)Cc1c[nH]cn1)[C@@H](C)O)[C@@H](C)O)C(C)C)[C@@H](C)O)C(C)C)C(=O)N[C@@H](CC(C)C)C(=O)NC(C)(C)C(=O)N[C@H](C(=O)N[C@@H](CCC(=O)O)C(=O)O)[C@@H](C)O [Peptide 487] (H-H[Aib]QGTFTSDVSK[αMeF]LDTK([AEEA-AEEA-γGlu-C18 diacid])RARDFVQWLL[Aib]TE-OH)	10.18	5.0	9.78
CC(C)C[C@H](NC(=O)[C@H](Cc1c[nH]c2ccccc12)NC(=O)[C@H](CCC(N)=O)NC(=O)[C@@H](NC(=O)[C@H](Cc1ccccc1)NC(=O)[C@H](CC(=O)O)NC(=O)[C@H](CCCNC(=N)N)NC(=O)[C@H](C)NC(=O)[C@H](CCCNC(=N)N)NC(=O)[C@H](CCCCNC(=O)COCCOCCNC(=O)COCCOCCNC(=O)CC[C@H](NC(=O)CCCCCCCCCCCCCCCCCCC(=O)O)C(=O)O)NC(=O)[C@@H](NC(=O)[C@H](CC(=O)O)NC(=O)[C@H](CC(C)C)NC(=O)[C@](C)(Cc1ccccc1)NC(=O)[C@H](CCCCN)NC(=O)[C@H](CO)NC(=O)[C@@H](NC(=O)[C@H](CC(=O)O)NC(=O)[C@H](CO)NC(=O)[C@@H](NC(=O)[C@H](Cc1ccccc1)NC(=O)[C@@H](NC(=O)CNC(=O)[C@H](CCC(N)=O)NC(=O)C(C)(C)NC(=O)[C@@H](N)Cc1c[nH]cn1)[C@@H](C)O)[C@@H](C)O)C(C)C)[C@@H](C)O)C(C)C)C(=O)N[C@@H](CC(C)C)C(=O)NC(C)(C)C(=O)N[C@H](C(=O)N[C@@H](CCC(=O)O)C(=O)O)[C@@H](C)O [Peptide 488] (H-H[Aib]QGTFTSDVSK[αMeF]LDTK([AEEA-AEEA-γGlu-C20 diacid])RARDFVQWLL[Aib]TE-OH; N-terminus assumed)	9.69	2.9	9.52
CC(C)C[C@H](NC(=O)[C@H](Cc1c[nH]c2ccccc12)NC(=O)[C@H](CCC(N)=O)NC(=O)[C@@H](NC(=O)[C@H](Cc1ccccc1)NC(=O)[C@H](CC(=O)O)NC(=O)[C@H](CCCNC(=N)N)NC(=O)[C@H](C)NC(=O)[C@H](CCCNC(=N)N)NC(=O)[C@H](CCCCNC(=O)COCCOCCNC(=O)COCCOCCNC(=O)CC[C@H](NC(=O)CCCCCCCCCCCCCCCCC(=O)O)C(=O)O)NC(=O)[C@@H](NC(=O)[C@H](CC(=O)O)NC(=O)[C@H](CC(C)C)NC(=O)[C@](C)(Cc1ccccc1)NC(=O)[C@H](CCCCN)NC(=O)[C@H](CO)NC(=O)[C@@H](NC(=O)[C@H](CC(=O)O)NC(=O)[C@H](CO)NC(=O)[C@@H](NC(=O)[C@H](Cc1ccccc1)NC(=O)[C@@H](NC(=O)CNC(=O)[C@H](CCC(N)=O)NC(=O)C(C)(C)NC(=O)[C@@H](N)Cc1c[nH]cn1)[C@@H](C)O)[C@@H](C)O)C(C)C)[C@@H](C)O)C(C)C)C(=O)N[C@@H](CC(C)C)C(=O)NC(C)(C)C(=O)N[C@H](C(=O)N[C@@H](CCC(=O)O)C(N)=O)[C@@H](C)O [Peptide 489] (H-H[Aib]QGTFTSDVSK[αMeF]LDTK([AEEA-AEEA-γGlu-C18 diacid])RARDFVQWLL[Aib]TE-NH2; N-terminus assumed)	10.64	14.5	9.78
CC(C)C[C@H](NC(=O)[C@H](Cc1c[nH]c2ccccc12)NC(=O)[C@H](CCC(N)=O)NC(=O)[C@@H](NC(=O)[C@H](Cc1ccccc1)NC(=O)[C@H](CC(=O)O)NC(=O)[C@H](CCCNC(=N)N)NC(=O)[C@H](C)NC(=O)[C@H](CCCNC(=N)N)NC(=O)[C@H](CCCCNC(=O)COCCOCCNC(=O)COCCOCCNC(=O)CC[C@H](NC(=O)CCCCCCCCCCCCCCCCCCC(=O)O)C(=O)O)NC(=O)[C@@H](NC(=O)[C@H](CC(=O)O)NC(=O)[C@H](CC(C)C)NC(=O)[C@](C)(Cc1ccccc1)NC(=O)[C@H](CCCCN)NC(=O)[C@H](CO)NC(=O)[C@@H](NC(=O)[C@H](CC(=O)O)NC(=O)[C@H](CO)NC(=O)[C@@H](NC(=O)[C@H](Cc1ccccc1)NC(=O)[C@@H](NC(=O)CNC(=O)[C@H](CCC(N)=O)NC(=O)C(C)(C)NC(=O)[C@@H](N)Cc1c[nH]cn1)[C@@H](C)O)[C@@H](C)O)C(C)C)[C@@H](C)O)C(C)C)C(=O)N[C@@H](CC(C)C)C(=O)NC(C)(C)C(=O)N[C@H](C(=O)N[C@@H](CCC(=O)O)C(N)=O)[C@@H](C)O [Peptide 490] (H-H[Aib]QGTFTSDVSK[αMeF]LDTK([AEEA-AEEA-γGlu-C20 diacid])RARDFVQWLL[Aib]TE-NH2; N-terminus assumed)	10.16	11.4	9.40

Now from value to compound:

pEC50 [1]	% Relative Potency Ratio [1]	pEC50 [2]	Compound
10.13	6.2	9.63	CC(C)C[C@H](NC(=O)[C@H](Cc1c[nH]c2ccccc12)NC(=O)[C@H](CCCNC(=N)N)NC(=O)[C@@H](NC(=O)[C@H](Cc1ccccc1)NC(=O)[C@H](CC(=O)O)NC(=O)[C@H](CCCNC(=N)N)NC(=O)[C@H](C)NC(=O)[C@H](CCCNC(=N)N)NC(=O)[C@H](CCCCNC(=O)COCCOCCNC(=O)COCCOCCNC(=O)CC[C@H](NC(=O)CCCCCCCCCCCCCCCCC(=O)O)C(=O)O)NC(=O)[C@@H](NC(=O)[C@H](CC(=O)O)NC(=O)[C@H](CC(C)C)NC(=O)[C@](C)(Cc1ccccc1)NC(=O)[C@H](CCCCN)NC(=O)[C@H](CO)NC(=O)[C@@H](NC(=O)[C@H](CC(=O)O)NC(=O)[C@H](CO)NC(=O)[C@@H](NC(=O)[C@H](Cc1ccccc1)NC(=O)[C@@H](NC(=O)CNC(=O)[C@H](CCC(N)=O)NC(=O)C(C)(C)NC(=O)[C@@H](N)Cc1c[nH]cn1)[C@@H](C)O)[C@@H](C)O)C(C)C)[C@@H](C)O)C(C)C)C(=O)N[C@@H](CC(C)C)C(=O)NC(C)(C)C(=O)N[C@H](C(=O)N[C@@H](CCC(=O)O)C(=O)O)[C@@H](C)O [Peptide 491] (H-H[Aib]QGTFTSDVSK[αMeF]LDTK([AEEA-AEEA-γGlu-C18 diacid])RARDFVRWLL[Aib]TE-OH; N-terminus assumed)
9.67	3.5	9.43	CC(C)C[C@H](NC(=O)[C@H](Cc1c[nH]c2ccccc12)NC(=O)[C@H](CCCNC(=N)N)NC(=O)[C@@H](NC(=O)[C@H](Cc1ccccc1)NC(=O)[C@H](CC(=O)O)NC(=O)[C@H](CCCNC(=N)N)NC(=O)[C@H](C)NC(=O)[C@H](CCCNC(=N)N)NC(=O)[C@H](CCCCNC(=O)COCCOCCNC(=O)COCCOCCNC(=O)CC[C@H](NC(=O)CCCCCCCCCCCCCCCCCCC(=O)O)C(=O)O)NC(=O)[C@@H](NC(=O)[C@H](CC(=O)O)NC(=O)[C@H](CC(C)C)NC(=O)[C@](C)(Cc1ccccc1)NC(=O)[C@H](CCCCN)NC(=O)[C@H](CO)NC(=O)[C@@H](NC(=O)[C@H](CC(=O)O)NC(=O)[C@H](CO)NC(=O)[C@@H](NC(=O)[C@H](Cc1ccccc1)NC(=O)[C@@H](NC(=O)CNC(=O)[C@H](CCC(N)=O)NC(=O)C(C)(C)NC(=O)[C@@H](N)Cc1c[nH]cn1)[C@@H](C)O)[C@@H](C)O)C(C)C)[C@@H](C)O)C(C)C)C(=O)N[C@@H](CC(C)C)C(=O)NC(C)(C)C(=O)N[C@H](C(=O)N[C@@H](CCC(=O)O)C(=O)O)[C@@H](C)O [Peptide 492] (H-H[Aib]QGTFTSDVSK[αMeF]LDTK([AEEA-AEEA-γGlu-C20 diacid])RARDFVRWLL[Aib]TE-OH; N-terminus assumed)
10.63	14.0	9.78	CC(C)C[C@H](NC(=O)[C@H](Cc1c[nH]c2ccccc12)NC(=O)[C@H](CCCNC(=N)N)NC(=O)[C@@H](NC(=O)[C@H](Cc1ccccc1)NC(=O)[C@H](CC(=O)O)NC(=O)[C@H](CCC(N)=O)NC(=O)[C@H](C)NC(=O)[C@H](CCCNC(=N)N)NC(=O)[C@H](CCCCNC(=O)COCCOCCNC(=O)COCCOCCNC(=O)CC[C@H](NC(=O)CCCCCCCCCCCCCCCCC(=O)O)C(=O)O)NC(=O)[C@@H](NC(=O)[C@H](CC(=O)O)NC(=O)[C@H](CC(C)C)NC(=O)[C@](C)(Cc1ccccc1)NC(=O)[C@H](CCCCN)NC(=O)[C@H](CO)NC(=O)[C@@H](NC(=O)[C@H](CC(=O)O)NC(=O)[C@H](CO)NC(=O)[C@@H](NC(=O)[C@H](Cc1ccccc1)NC(=O)[C@@H](NC(=O)CNC(=O)[C@H](CCC(N)=O)NC(=O)C(C)(C)NC(=O)[C@@H](N)Cc1c[nH]cn1)[C@@H](C)O)[C@@H](C)O)C(C)C)[C@@H](C)O)C(C)C)C(=O)N[C@@H](CC(C)C)C(=O)N[C@@H](CCCNC(=N)N)C(=O)NC(C)(C)C(=O)N[C@@H](CCCCN)C(=O)O [Peptide 493] (H-H[Aib]QGTFTSDVSK[αMeF]LDTK([AEEA-AEEA-γGlu-C18 diacid])RAQDFVRWLLR[Aib]K-OH; N-terminus assumed)
